Where two headings read alike, the source gives them in different places.
Assays:
Type in all cases: in vivo
Megoura viciae = assay: Vetch aphid (Megoura viciae) control through contact or systemic means, broad bean leaf disks; settings: foliar, 120 h, read-out: mortality in comparison with untreated controls (aphid mortality)
Description: Vetch Aphid (Megoura viciae)
For evaluating control of vetch aphid (Megoura viciae) through contact or systemic means the test unit consisted of 24-well-microtiter plates containing broad bean leaf disks.
The compounds were formulated using a solution containing 75% v/v water and 25% v/v DMSO. Different concentrations of formulated compounds were sprayed onto the leaf disks at 2.5 μl, using a custom built micro atomizer, at two replications. After application, the leaf disks were air-dried and 5-8 adult aphids placed on the leaf disks inside the microtiter plate wells. The aphids were then allowed to suck on the treated leaf disks and incubated at about 23±1° C. and about 50±5% relative humidity for 5 days. Aphid mortality and fecundity was then visually assessed.

Myzus persicae = assay: Green peach aphid (Myzus persicae) control through systemic means, artificial diet under membrane; settings: 72 h, read-out: mortality in comparison with untreated controls (aphid mortality)
From the text: Green Peach Aphid (Myzus persicae)
For evaluating control of green peach aphid (Myzus persicae) through systemic means the test unit consisted of 96-well-microtiter plates containing liquid artificial diet under an artificial membrane. The compounds were formulated using a solution containing 75% v/v water and 25% v/v DMSO. Different concentrations of formulated compounds were pipetted into the aphid diet, using a custom built pipetter, at two replications. After application, 5-8 adult aphids were placed on the artificial membrane inside the microtiter plate wells. The aphids were then allowed to suck on the treated aphid diet and incubated at about 23±1° C. and about 50±5% relative humidity for 3 days. Aphid mortality and fecundity was then visually assessed.

Heliothis virescens = assay: Tobacco budworm (Heliothis virescens) control, 96-well microtiter plate with insect diet and eggs; settings: 120 h, sprayed onto insect diet, 5 days, visually assessed, read-out: mortality in comparison with untreated controls (egg and larval mortality)
Description: Tobacco Budworm (Heliothis virescens)
(§1) For evaluating control of tobacco budworm (Heliothis virescens) the test unit consisted of 96-well-microtiter plates containing an insect diet and 15-25 H. virescens eggs. The compounds were formulated using a solution containing 75% v/v water and 25% v/v DMSO. Different concentrations of formulated compounds were sprayed onto the insect diet at 10 μl, using a custom built micro atomizer, at two replications. After application, microtiter plates were incubated at about 28±1° C. and about 80±5% relative humidity for 5 days. Egg and larval mortality was then visually assessed.

Anthonomus grandis = assay: Boll weevil (Anthonomus grandis) control, 96-well microtiter plate with insect diet and eggs; settings: 120 h, sprayed onto insect diet, 5 days, visually assessed, read-out: mortality in comparison with untreated controls (egg and larval mortality)
Description: Boll Weevil (Anthonomus grandis)
as §1, with “boll weevil (Anthonomus grandis)” for “tobacco budworm (Heliothis virescens)”, “5-10 A. grandis” for “15-25 H. virescens”, “5” for “10”, “25±1°” for “28±1°”, “75±5%” for “80±5%”

[1] = 2500 ppm, sprayed onto leaf disks, 5 days, visually assessed
[2] = 2500 ppm, pipetted into aphid diet, 3 days, visually assessed

Compound: CCn1c([O-])c(C(=O)c2ccccc2)[n+]2c1SCC2c1ccc(Cl)nc1 (centres unmarked) [Compound C-1, 5-benzoyl-3-(6-chloro-3-pyridyl)-7-ethyl-2,3-dihydroimidazo[2,1-b]thiazol-4-ium-6-olate]
- mortality at 2500 ppm (Megoura viciae): > 75%
- mortality at 2500 ppm (Myzus persicae): > 75%

Compound: CC(=O)c1c([O-])[n+](C)c2n1C(c1cnc(Cl)s1)CS2 (centres unmarked) [Compound C-2]
- mortality at 2500 ppm (Megoura viciae): > 75%
- mortality at 2500 ppm (Myzus persicae): > 75%

Compound: C[n+]1c([O-])c(C(=O)C(F)F)n2c1SCC2c1cnc(Cl)s1 (centres unmarked) [Compound C-3]
- mortality at 2500 ppm (Megoura viciae): > 75%
- mortality at 2500 ppm (Myzus persicae): > 75%
- mortality at 2500 ppm (Heliothis virescens): > 75%

Compound: C[n+]1c([O-])c(C(=O)c2ccccc2)n2c1SCC2CC#N (centres unmarked) [Compound C-4]
- mortality at 2500 ppm (Megoura viciae; [1]): > 75%
- mortality at 2500 ppm (Myzus persicae; [2]): > 75%

Compound: CC[n+]1c([O-])c(C(=O)C(F)(F)C(F)(F)F)n2c1SCC2c1ccc(Cl)nc1 (centres unmarked) [Compound C-6]
- mortality at 2500 ppm (Megoura viciae): > 75%
- mortality at 2500 ppm (Myzus persicae): > 75%
- mortality at 2500 ppm (Heliothis virescens): > 75%
- mortality at 2500 ppm (Anthonomus grandis): > 75%

Compound: CC[n+]1c([O-])c(C(=O)c2cccs2)n2c1SCC2c1ccc(Cl)nc1 (centres unmarked) [Compound C-7]
- mortality at 2500 ppm (Megoura viciae): > 75%
- mortality at 2500 ppm (Myzus persicae): > 75%
- mortality at 2500 ppm (Anthonomus grandis): > 75%

Compound: CC[n+]1c([O-])c(C(C)=O)n2c1SCC2c1ccc(Cl)nc1 (centres unmarked) [Compound C-8]
- mortality at 2500 ppm (Megoura viciae): > 75%
- mortality at 2500 ppm (Myzus persicae): > 75%
- mortality at 2500 ppm (Anthonomus grandis): > 75%

Compound: C[n+]1c([O-])c(C(=O)C(=O)OCC(F)(F)F)n2c1SC[C@@H]2c1cnc(Cl)s1 [Compound C-9]
- mortality at 2500 ppm (Megoura viciae; [1]): > 75%
- mortality at 2500 ppm (Myzus persicae; [2]): > 75%

Compound: CC[n+]1c([O-])c(C(=O)C(=O)OCC(F)(F)F)n2c1SCC2c1ccc(Cl)nc1 (centres unmarked) [Compound C-10]
- mortality at 2500 ppm (Megoura viciae): > 75%
- mortality at 2500 ppm (Myzus persicae): > 75%

Compound: CCOC(=O)C(=O)C1=C(O)N(C)C2N(C)CC(c3cnc(Cl)s3)N12 (centres unmarked) [Compound C-12]
- mortality at 2500 ppm (Myzus persicae): > 75%
- mortality at 2500 ppm (Heliothis virescens): > 75%
- mortality at 2500 ppm (Anthonomus grandis): > 75%

From patent publication US20220202017A1, “MESOIONIC IMIDAZOLIUM COMPOUNDS AND DERIVATIVES FOR COMBATING ANIMAL PESTS” (BASF SE, priority 2019, published 2022)
